Results published in US20180155344A1, “TRICYCLIC PIPERIDINE COMPOUNDS” (ACTELION PHARMACEUTICALS LTD, priority 2015, published 2018).

biological target: T1, human TPH1 (Homo sapiens, UniProt P17752); assay: biochemical
T1 sequence (P17752 1-444): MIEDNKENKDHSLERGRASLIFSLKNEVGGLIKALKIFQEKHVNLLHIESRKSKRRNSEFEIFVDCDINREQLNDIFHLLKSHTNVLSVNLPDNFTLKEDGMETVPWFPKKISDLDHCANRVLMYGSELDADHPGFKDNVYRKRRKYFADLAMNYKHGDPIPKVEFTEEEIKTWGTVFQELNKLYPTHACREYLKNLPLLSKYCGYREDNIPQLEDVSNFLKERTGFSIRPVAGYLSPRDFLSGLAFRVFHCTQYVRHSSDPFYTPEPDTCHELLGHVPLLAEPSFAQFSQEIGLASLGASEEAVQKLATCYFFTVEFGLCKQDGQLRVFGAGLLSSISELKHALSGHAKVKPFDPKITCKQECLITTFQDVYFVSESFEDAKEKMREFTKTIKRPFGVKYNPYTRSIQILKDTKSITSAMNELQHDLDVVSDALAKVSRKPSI
Text: Biochemical In Vitro Assay Using Fluorescence Readout
To generate the enzyme, full length human TPH1 is cloned into the plasmid pET20b(+) (Novagen) and expressed in E. coli. The bacterial cells are ruptured by sonication on ice and the lysate is cleared by centrifugation. The resulting protein in the pellet is re-extracted and TPH1 is purified from the obtained lysate by affinity chromatography using a pterin cosubstrate analog immobilized to the resin of the column. The protein is further purified by size exclusion chromatography to remove protein aggregates. The activity of TPH1 is determined by using a fluorescence assay. The enzyme activity assay is carried out at 15° C. with atmosphere oxygen for the duration of 60 minutes in a volume of 64 μl. The reaction is carried out in a 0.1 M Tris-HCl buffer, adjusted to pH 7.6, containing 1 mM DTT, 0.2 mg/mL catalase, 100 μM (±)-6-methyl-5,6,7,8-tetrahydropterine dihydrochloride, 40 μM L-tryptophan, and 40-80 nM of TPH1. The reaction is started by bringing together L-tryptophan with all the other reaction substituents and stopped by quenching with perchloric acid (HClO4). The amount of 5-hydroxy-L-tryptophan produced during the enzymatic reaction is determined by fluorescence readout. Fluorescence, as determined at 540 nm when excited at 300 nm wavelength, increases proportionally to the 5-hydroxy-L-tryptophan formed. Compounds are prepared as 10 mM stock solution in DMSO, then diluted in 384-well plates using DMSO followed by a transfer of the dilutions into the assay plate. Fluorescence is measured for each well and the fluorescence at 540 nm wavelength is compared to the fluorescence of the vehicle in place of compound. […] The calculated IC50 values may fluctuate depending on the daily biochemical assay performance. Fluctuations of this kind are known to those skilled in the art.

In order of rising IC50:
1. CS(=O)(=O)Nc1ccc(OCC(=O)N2CCc3nc4ccccn4c3C2c2ccc(Cl)cc2F)c(Cl)n1 (centres unmarked) [Example 1.4.7, N-(6-chloro-5-(2-(1-(4-chloro-2-fluorophenyl)-3,4-dihydroimidazo[1,2-a:5,4-c′]dipyridin-2(1H)-yl)-2-oxoethoxy)pyridin-2-yl)methanesulfonamide]  10 nM
2. CN(CC(F)(F)F)c1ccc(OCC(=O)N2CCc3nc4ccccn4c3C2c2ccc(Cl)cc2F)c(Cl)n1 (centres unmarked) [Example 1.4.11, 1-(1-(4-chloro-2-fluorophenyl)-3,4-dihydroimidazo[1,2-a:5,4-c′]dipyridin-2(1H)-yl)-2-((2-chloro-6-(methyl(2,2,2-trifluoroethyl)amino)pyridin-3-yl)oxy)ethan-1-one]  14 nM
3. O=C(NC1CC1)c1ccc(OCC(=O)N2CCc3nc4ccccn4c3C2c2ccc(Cl)cc2F)c(C2CC2)n1 (centres unmarked) [Example 1.4.13, 5-(2-(1-(4-chloro-2-fluorophenyl)-3,4-dihydroimidazo[1,2-a:5,4-c′]dipyridin-2(1H)-yl)-2-oxoethoxy)-N,6-dicyclopropylpicolinamide]  36 nM
4. COCCN(C)c1ccc(OCC(=O)N2CCc3nc4ccccn4c3C2c2ccc(Cl)cc2F)c(Cl)n1 (centres unmarked) [Example 1.4.8, 1-(1-(4-chloro-2-fluorophenyl)-3,4-dihydroimidazo[1,2-a:5,4-c′]dipyridin-2(1H)-yl)-2-((2-chloro-6-((2-methoxyethyl)(methyl)amino)pyridin-3-yl)oxy)ethan-1-one]  39 nM
5. CN(C)c1ccc(OCC(=O)N2CCc3nc4ccccn4c3C2c2ccc(Cl)cc2F)c(Cl)n1 (centres unmarked) [Example 1.4.12, 1-(1-(4-chloro-2-fluorophenyl)-3,4-dihydroimidazo[1,2-a:5,4-c′]dipyridin-2(1H)-yl)-2-((2-chloro-6-(dimethylamino)pyridin-3-yl)oxy)ethan-1-one]  58 nM
6. CN(CCO)c1ccc(OCC(=O)N2CCc3nc4ccccn4c3C2c2ccc(Cl)cc2F)c(Cl)n1 (centres unmarked) [Example 1.4.10, 1-(1-(4-chloro-2-fluorophenyl)-3,4-dihydroimidazo[1,2-a:5,4-c′]dipyridin-2(1H)-yl)-2-((2-chloro-6-((2-hydroxyethyl)(methyl)amino)pyridin-3-yl)oxy)ethan-1-one]  87 nM
7. CS(=O)(=O)c1ccc(OCC(=O)N2CCc3nc4ccccn4c3C2c2ccc(Cl)cc2F)c(Cl)n1 (centres unmarked) [Example 1.4.14, 1-(1-(4-chloro-2-fluorophenyl)-3,4-dihydroimidazo[1,2-a:5,4-c′]dipyridin-2(1H)-yl)-2-((2-chloro-6-(methylsulfonyl)pyridin-3-yl)oxy)ethan-1-one]  287 nM
8. CN(C)C(=O)c1ccc(OC2(C(=O)N3CCc4nc5ccccn5c4C3c3ccc(Cl)cc3F)CC2)c(Cl)n1 (centres unmarked) [Example 1.4.15, 6-chloro-5-(1-(1-(4-chloro-2-fluorophenyl)-1,2,3,4-tetrahydroimidazo[1,2-a:5,4-c′]dipyridine-2-carbonyl)cyclopropoxy)-N,N-dimethylpicolinamide]  323 nM
9. CS(=O)(=O)Nc1ccc(OCC(=O)N2CCc3nc4ccccn4c3C2c2ccc(Cl)cc2F)c(C2CC2)n1 (centres unmarked) [Example 1.4.9, N-(5-(2-(1-(4-chloro-2-fluorophenyl)-3,4-dihydroimidazo[1,2-a:5,4-c′]dipyridin-2(1H)-yl)-2-oxoethoxy)-6-cyclopropylpyridin-2-yl)methanesulfonamide]  364 nM
10. CS(=O)(=O)Nc1ccc(OC2(C(=O)N3CCc4nc5ccccn5c4C3c3ccc(Cl)cc3F)CC2)c(Cl)n1 (centres unmarked) [Example 1.4.16, N-(6-chloro-5-(1-(1-(4-chloro-2-fluorophenyl)-1,2,3,4-tetrahydroimidazo[1,2-a:5,4-c′]dipyridine-2-carbonyl)cyclopropoxy)pyridin-2-yl)methanesulfonamide]  488 nM
11. CN(C)C(=O)c1ccc(OC(C)(C)C(=O)N2CCc3nc4ccccn4c3C2c2ccc(Cl)cc2F)c(Cl)n1 (centres unmarked) [Example 1.4.17, 6-chloro-5-((1-(1-(4-chloro-2-fluorophenyl)-3,4-dihydroimidazo[1,2-a:5,4-c′]dipyridin-2(1H)-yl)-2-methyl-1-oxopropan-2-yl)oxy)-N,N-dimethylpicolinamide]  949 nM
